# Assay results taken from paper PMC8586496 (International Journal for Parasitology: Drugs and Drug …, 2021).
# Values joined by “and” are separate entries in the source; they are usually repeats but may differ in a detail not shown here. Equal entries are not always repeated.
# Tests used:
# [1] = tested on: non-transfected LLC-PK1 cells; assay type: cell-based, pig; details: possibly P-gp-independent mechanism
# [2] = target: T1, Tca-Pgp-11.1 (Toxocara canis, UniProt A0A891XKB7); experiment: H33342 efflux inhibition assay; assay type: cell-based
# T1 sequence (A0A891XKB7 1-1282): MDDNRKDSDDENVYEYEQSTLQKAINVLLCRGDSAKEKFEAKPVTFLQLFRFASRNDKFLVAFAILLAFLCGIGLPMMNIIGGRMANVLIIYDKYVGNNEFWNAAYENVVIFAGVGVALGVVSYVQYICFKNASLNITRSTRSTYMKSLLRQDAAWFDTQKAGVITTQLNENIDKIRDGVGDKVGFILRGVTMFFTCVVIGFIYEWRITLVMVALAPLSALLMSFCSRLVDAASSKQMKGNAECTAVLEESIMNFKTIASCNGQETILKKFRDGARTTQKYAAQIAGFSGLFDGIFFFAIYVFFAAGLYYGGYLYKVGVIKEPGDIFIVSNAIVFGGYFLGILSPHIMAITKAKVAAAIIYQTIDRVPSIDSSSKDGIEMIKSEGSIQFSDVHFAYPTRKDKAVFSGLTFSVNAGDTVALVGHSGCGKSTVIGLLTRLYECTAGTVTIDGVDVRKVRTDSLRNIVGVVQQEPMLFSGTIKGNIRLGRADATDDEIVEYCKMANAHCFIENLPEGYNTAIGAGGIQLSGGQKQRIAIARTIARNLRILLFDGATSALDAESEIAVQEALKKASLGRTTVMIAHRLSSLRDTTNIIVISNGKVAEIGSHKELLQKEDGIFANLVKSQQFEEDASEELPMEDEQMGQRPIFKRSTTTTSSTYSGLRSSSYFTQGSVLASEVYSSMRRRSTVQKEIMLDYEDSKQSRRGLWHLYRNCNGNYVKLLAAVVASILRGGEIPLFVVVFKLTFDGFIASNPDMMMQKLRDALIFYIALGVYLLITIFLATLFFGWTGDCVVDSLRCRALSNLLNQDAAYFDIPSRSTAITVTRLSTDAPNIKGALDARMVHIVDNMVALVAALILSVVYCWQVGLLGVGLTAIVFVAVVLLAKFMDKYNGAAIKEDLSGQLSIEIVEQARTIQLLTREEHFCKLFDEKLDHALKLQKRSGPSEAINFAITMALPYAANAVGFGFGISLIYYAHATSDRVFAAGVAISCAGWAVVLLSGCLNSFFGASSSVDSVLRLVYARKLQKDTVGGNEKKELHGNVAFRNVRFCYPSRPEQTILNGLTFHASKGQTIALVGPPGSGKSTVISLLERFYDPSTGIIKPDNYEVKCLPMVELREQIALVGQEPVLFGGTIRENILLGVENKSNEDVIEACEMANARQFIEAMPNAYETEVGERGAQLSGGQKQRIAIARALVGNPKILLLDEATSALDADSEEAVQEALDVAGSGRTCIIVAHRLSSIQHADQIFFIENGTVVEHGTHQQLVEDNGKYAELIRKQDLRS
SMILES,Effect on release of H33342 from non-transfected cells [1],IC50 [2]
COC(=O)[C@H]1[C@H]2C[C@@H]3c4[nH]c5cc(OC)ccc5c4CCN3C[C@H]2C[C@@H](OC(=O)c2cc(OC)c(OC)c(OC)c2)[C@@H]1OC [reserpine],enhanced release of H33342 from non-transfected cells,–
"C/C=C/C[C@@H](C)C(=O)[C@H]1C(=O)N[C@@H](C(C)C)C(=O)N(C)CC(=O)N(C)[C@@H](CC(C)C)C(=O)N[C@@H](C(C)C)C(=O)N(C)[C@@H](CC(C)C)C(=O)N[C@@H](C)C(=O)N[C@H](C)C(=O)N(C)[C@@H](CC(C)C)C(=O)N(C)[C@@H](CC(C)C)C(=O)N(C)[C@@H](C(C)C)C(=O)N1C [Valspodar, valspodar]",–,3.01 µM
C=CC[C@@H]1/C=C(\C)C[C@H](C)C[C@H](OC)[C@H]2O[C@@](O)(C(=O)C(=O)N3CCCC[C@H]3C(=O)O[C@H](/C(C)=C/[C@@H]3CC[C@@H](O)[C@H](OC)C3)[C@H](C)[C@@H](O)CC1=O)[C@H](C)C[C@@H]2OC [tacrolimus],enhanced release of H33342 from non-transfected cells,–
"CO[C@H]1C[C@H](O[C@@H]2/C(C)=C/C[C@@H]3C[C@@H](C[C@]4(CC[C@H](C)[C@@H](C5CCCCC5)O4)O3)OC(=O)[C@@H]3C=C(C)/C(=N/O)[C@H]4OC/C(=C\C=C\[C@@H]2C)[C@]43O)O[C@@H](C)[C@@H]1O [Selamectin, selamectin]",–,1020 µM
"COc1cc2c(cc1OC)CN(CCc1ccc(NC(=O)c3cc(OC)c(OC)cc3NC(=O)c3cnc4ccccc4c3)cc1)CC2 [Tariquidar, tariquidar]",–,68 µM and 68.5 µM
